Here are results for two compounds from paper PMC7719157 (Pharmacology Research & Perspectives, 2020).

For test [1], the target named is T1, PPARγ (Homo sapiens, UniProt P37231).
T1 sequence (P37231 223-505 limits assumed): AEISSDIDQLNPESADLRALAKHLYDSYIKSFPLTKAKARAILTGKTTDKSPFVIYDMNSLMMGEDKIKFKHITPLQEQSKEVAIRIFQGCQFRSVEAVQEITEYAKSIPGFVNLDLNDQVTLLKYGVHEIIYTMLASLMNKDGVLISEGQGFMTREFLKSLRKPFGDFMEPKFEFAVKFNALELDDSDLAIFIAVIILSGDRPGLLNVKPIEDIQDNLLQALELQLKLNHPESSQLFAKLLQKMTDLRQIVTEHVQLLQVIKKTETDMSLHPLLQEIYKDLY
Briefly: TR-FRET coactivator. In kind it is biochemical.

Test [2] deals with T2, PPARα (Homo sapiens, UniProt Q07869).
T2 sequence (Q07869 196-468 limits assumed): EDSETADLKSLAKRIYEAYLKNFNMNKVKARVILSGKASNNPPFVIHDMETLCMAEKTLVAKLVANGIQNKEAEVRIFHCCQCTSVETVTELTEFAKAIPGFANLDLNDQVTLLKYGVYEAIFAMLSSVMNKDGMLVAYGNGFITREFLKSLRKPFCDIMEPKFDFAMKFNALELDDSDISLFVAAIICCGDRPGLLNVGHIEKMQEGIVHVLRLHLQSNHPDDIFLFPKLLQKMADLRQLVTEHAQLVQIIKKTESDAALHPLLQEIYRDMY
Briefly: AlphaScreen coactivator. In kind it is biochemical.

Test [3] concerns the target T1, PPARγ. Briefly: [3H]rosiglitazone radioligand displacement. Type of test: binding.
The target in test [4] is T3, PPARδ (Homo sapiens, UniProt Q03181).
T3 sequence (Q03181 171-441 limits assumed): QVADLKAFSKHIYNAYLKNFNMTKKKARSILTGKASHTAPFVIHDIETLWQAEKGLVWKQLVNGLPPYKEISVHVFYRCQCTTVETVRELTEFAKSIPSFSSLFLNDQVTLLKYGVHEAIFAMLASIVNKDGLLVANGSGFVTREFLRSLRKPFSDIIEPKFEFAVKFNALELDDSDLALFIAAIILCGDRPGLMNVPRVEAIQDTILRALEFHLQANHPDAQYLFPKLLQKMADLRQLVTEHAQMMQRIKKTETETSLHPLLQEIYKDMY
Nature of the test: AlphaScreen coactivator. In kind it is biochemical.

In turn, `O=C(Nc1ccccc1)c1cc([N+](=O)[O-])ccc1Cl` [GW9662] came in with a 50% inhibitory concentration (IC50) in test [1] of 0.00452 µM.
For `CC(C)(C)c1ccc(-c2nc(CBr)nn2-c2cccc(O)c2)cc1` [MM902, 3‐(3‐(bromomethyl)‐5‐(4‐(tert‐butyl) phenyl)‐1H‐1,2,4‐triazol‐1‐yl) phenol], the concentration for half-maximal inhibition (IC50) stood at 46 µM in test [2] and 48 µM in test [4]. This compound registered a Ki in test [3] of 0.14 µM.
